According to patent publication US20240245711A1, “A 19-NOR C3,3-DISUBSTITUTED C21-N-PYRAZOLYL STEROID FOR THE TREATMENT OF MAJOR DEPRESSIVE DISORDER” (Sage Therapeutics, Inc., priority 2021, published 2024):
Entries after “also recorded” stand apart in the source; their conditions may differ.

Tested on: adult subjects with Major Depressive Disorder
Experiment: Phase 3 open-label 1-year study: safety and tolerability (TEAEs, SAEs, C-SSRS)
Format: in vivo, human
Settings: for Subjects reporting TEAEs leading to dose reduction: Low dose cohort; for Subjects with Treatment Cycle Period TEAE / Subjects with Treatment Period TEAE: Study Period 1 only
Experimental: Primary Objective: To determine the safety and tolerability of initial treatment and re-treatment(s) with Compound (1) in adults with Major Depressive Disorder (MDD) currently experiencing a major depressive episode (MDE) over a 1-year period.
Study Population: Subjects were 18-75 years old, diagnosed with major depressive disorder (MDD) with a MADRS total score of ≥28 and a HAM-D total score of ≥20 at Screening and Day 1 (prior to dosing).
Treatment Groups: The 30 mg and 50 mg dose groups were separated by time of enrollment. The study is comprised of two cohorts: one with Compound (1) 30 mg as a starting dose (30 mg Cohort: n=725), an initial cohort with Compound (1) 50 mg as a starting dose (50 mg Cohort: n=199). A patient receiving Compound (1) 30 mg could be dose reduced to 20 mg and patients receiving Compound (1) 50 mg could be dose reduced to 40 mg (based on tolerability). In all cohorts, Compound (1) is self-administered by patients as an oral therapy once nightly with food for 14 days.
The study has a Screening Period of up to 28 days, a 14-day Treatment Period, and up to 1 year of Follow-up. FIG. 1 is an overview of the study.
Antidepressants were permitted provided subjects were on a stable dose for at least 60 days prior to Day 1 and agreed to continue on the stable dose through the follow-up period (Day 42). Initiation of new antidepressants or any other medications that may potentially have an impact on efficacy or safety endpoints were not allowed between screening and completion of the Day 42 assessments.
Eligible subjects were given Compound (1)—to be taken at home in the evening with meal.
Subjects who continued in the Observation Period were monitored remotely via PHQ-9 assessment every two weeks. If PHQ-9 score was >=10 at any assessment, PHQ-9 assessment was switch to every week until the score came down below 10 or the subject was dosed with Compound (1) in a subsequent cycle, whichever was earlier. A subject was to come back to the site for HAM-D assessment within a week of PHQ-9 score >=10; if the HAM-D total score >=20 and at least 56 days had elapsed since the last dose of Compound (1), another dosing cycle of Compound (1) were to start. If any of these criteria were not met, the subject couldn't be treated with Compound (1) at that time. Without the trigger of PHQ-9>=10 the subject was to have a clinic visit every 8 weeks. A subject could have at most 5 cycles of treatment within a year. FIG. 2 is a depiction of the eligibility criteria of the study.
Dose reduction from 30 mg to 20 mg or 50 mg to 40 mg was allowed in any treatment cycle if the safety and/or tolerability of the subject so warrants. […] Subjects who dose reduced from 30 mg to 20 mg still started with 30 mg in the next treatment cycle.
The cohorts pertaining to the different doses that the subjects received were defined as following: • 50 mg cohort: This cohort includes subjects who have initiated treatment with 50 mg and received re-treatment with 50 mg only. • 30 mg cohort: This cohort includes subjects who have initiated treatment with 30 mg regardless of the dose they have received in re-treatments. • Low dose cohort: This cohort includes subjects who have initiated treatment with 30 mg and received re-treatment with 30 mg only. • Dose switch cohort: This cohort includes subjects who have received initial treatment with 30 mg and at least one subsequent re-treatment with 50 mg. • Study Period X: starts on the date of the first dose of Compound (1) in cycle X and goes up to one day prior to the first dose of the next cycle. […]

[1] = Low Dose Cohort, ATD use at period-specific baseline No, Study Period 3
[2] = Low Dose Cohort, ATD use at period-specific baseline No, Study Period 4
[3] = Low Dose Cohort, ATD use at period-specific baseline No, Study Period 5
[4] = Low Dose Cohort, ATD use at period-specific baseline Yes, Study Period 1
[5] = Low Dose Cohort, ATD use at period-specific baseline Yes, Study Period 2
[6] = Low Dose Cohort, ATD use at period-specific baseline Yes, Study Period 3
[7] = Low Dose Cohort, ATD use at period-specific baseline Yes, Study Period 4
[8] = Low Dose Cohort, ATD use at period-specific baseline Yes, Study Period 5
[9] = overall study population (Example 5)

C[C@@]1(O)CC[C@H]2[C@H](CC[C@@H]3[C@@H]2CC[C@]2(C)[C@@H](C(=O)Cn4cc(C#N)cn4)CC[C@@H]32)C1 [Compound (1), 1-(2-((3R,5R,8R,9R,10S,13S,14S,17S)-3-hydroxy-3,13-dimethylhexadecahydro-1H-cyclopenta[a]phenanthren-17-yl)-2-oxoethyl)-1H-pyrazole-4-carbonitrile]
Subjects with at least one Treatment period AE (Low Dose Cohort, ATD use at period-specific baseline No, Study Period 2): 51 (43.2%)
Subjects with a TEAE leading to study drug discontinuation [1]: 0%
Subjects with a Treatment cycle period AE leading to study withdrawal [1]: 1 (2.4%)
Subjects with at least one TEAE [1]: 21 (51.2%)
Subjects with at least one Treatment cycle period TEAE [1]: 14 (34.1%)
Subjects with at least one Treatment cycle period serious TEAE [1]: 1 (2.4%)
Subjects with at least one Treatment cycle period severe TEAE [1]: 2 (4.9%)
Subjects with at least one Treatment period AE [1]: 12 (29.3%)
Subjects with a TEAE leading to study drug discontinuation [2]: 0%
Subjects with a Treatment cycle period AE leading to study withdrawal [2]: 0%
Subjects with at least one TEAE [2]: 8 (33.3%)
Subjects with at least one Treatment cycle period TEAE [2]: 6 (25.0%)
Subjects with at least one Treatment cycle period serious TEAE [2]: 0%
Subjects with at least one Treatment cycle period severe TEAE [2]: 0%
Subjects with at least one Treatment period AE [2]: 5 (20.8%)
Subjects with a TEAE leading to study drug discontinuation [3]: 0%
Subjects with a Treatment cycle period AE leading to study withdrawal [3]: 0%
Subjects with at least one TEAE [3]: 3 (33.3%)
Subjects with at least one Treatment cycle period TEAE [3]: 2 (22.2%)
Subjects with at least one Treatment cycle period serious TEAE [3]: 0%
Subjects with at least one Treatment cycle period severe TEAE [3]: 0%
Subjects with at least one Treatment period AE [3]: 2 (22.2%)
Subjects with a TEAE leading to study drug discontinuation [4]: (1.5%)
Subjects with a Treatment cycle period AE leading to study withdrawal [4]: (1.9%)
Subjects with at least one TEAE [4]: (57.9%)
Subjects with at least one Treatment cycle period TEAE [4]: (50.4%)
Subjects with at least one Treatment cycle period serious TEAE [4]: (0.4%)
Subjects with at least one Treatment cycle period severe TEAE [4]: (2.3%)
Subjects with at least one Treatment period AE [4]: (47.4%)
Subjects with a TEAE leading to study drug discontinuation [5]: 1 (1.1%)
Subjects with a Treatment cycle period AE leading to study withdrawal [5]: 1 (1.1%)
Subjects with at least one TEAE [5]: 48 (54.5%)
Subjects with at least one Treatment cycle period TEAE [5]: 36 (40.9%)
Subjects with at least one Treatment cycle period serious TEAE [5]: 1 (1.1%)
Subjects with at least one Treatment cycle period severe TEAE [5]: 2 (2.3%)
Subjects with at least one Treatment period AE [5]: 29 (33.0%)
Subjects with a TEAE leading to study drug discontinuation [6]: 0%
Subjects with a Treatment cycle period AE leading to study withdrawal [6]: 0%
Subjects with at least one TEAE [6]: 19 (42.2%)
Subjects with at least one Treatment cycle period TEAE [6]: 14 (31.1%)
Subjects with at least one Treatment cycle period serious TEAE [6]: 0%
Subjects with at least one Treatment cycle period severe TEAE [6]: 0%
Subjects with at least one Treatment period AE [6]: 12 (26.7%)
Subjects with a TEAE leading to study drug discontinuation [7]: 0%
Subjects with a Treatment cycle period AE leading to study withdrawal [7]: 0%
Subjects with at least one TEAE [7]: 7 (36.8%)
Subjects with at least one Treatment cycle period TEAE [7]: 3 (15.8%)
Subjects with at least one Treatment cycle period serious TEAE [7]: 0%
Subjects with at least one Treatment cycle period severe TEAE [7]: 0%
Subjects with at least one Treatment period AE [7]: 3 (15.8%)
Subjects with a TEAE leading to study drug discontinuation [8]: 0%
Subjects with a Treatment cycle period AE leading to study withdrawal [8]: 0%
Subjects with at least one TEAE [8]: 6 (54.5%)
Subjects with at least one Treatment cycle period TEAE [8]: 4 (36.4%)
Subjects with at least one Treatment cycle period serious TEAE [8]: 0%
Subjects with at least one Treatment cycle period severe TEAE [8]: 0%
Subjects with at least one Treatment period AE [8]: 4 (36.4%)
Proportion of subjects reporting TEAEs (Low Dose cohort, as printed in b423 (451/677)): 66.6%
SAEs considered probably or possibly related to the study drug (Low dose cohort (30 mg only), treatment cycle 1): none
Subjects reporting TEAEs leading to dose reduction (Cycle 1): 3.4%
Subjects reporting TEAEs leading to dose reduction (Cycle 2): 4.4%
Subjects reporting TEAEs leading to dose reduction (Cycle 3): 2.3%
Subjects reporting TEAEs leading to dose reduction (Cycle 4 (0/43)): 0%
Subjects reporting TEAEs leading to dose reduction (Cycle 5): 10%
Subjects reporting TEAEs leading to dose reduction (overall (32/645)): 5.0%
Subjects with at least one TEAE (Overall (N = 924)): 618 (66.9%)
Subjects with at least one TEAE leading to study drug discontinuation (Overall (N = 924)): 32 (3.5%)
Subjects with at least one TEAE leading to study withdrawal (Overall (N = 924)): 46 (5.0%)
Subjects with at least one serious TEAE (Overall (N = 924)): 27 (2.9%)
Subjects with at least one severe TEAE (Overall (N = 924)): 60 (6.5%)
Subjects with Treatment Cycle Period TEAE (30 mg Cohort (N = 725)): 368 (50.8%)
Subjects with Treatment Period TEAE (30 mg Cohort (N = 725)): 348 (48.0%)
Subjects with Treatment Cycle Period TEAE (50 mg Cohort (N = 199)): 117 (58.8%)
Subjects with Treatment Period TEAE (50 mg Cohort (N = 199)): 108 (54.3%)
Subjects with Treatment Cycle Period TEAE (Dose Switch Cohort (N = 80)): 31 (38.8%)
Subjects with Treatment Period TEAE (Dose Switch Cohort (N = 80)): 28 (35.0%)
Subjects with Treatment Cycle Period TEAE (Low Dose Cohort (N = 645)): 337 (52.2%)
Subjects with Treatment Period TEAE (Low Dose Cohort (N = 645)): 320 (49.6%)
Subjects with Treatment Cycle Period TEAE (Overall (N = 924)): 485 (52.5%)
Subjects with Treatment Period TEAE (Overall (N = 924)): 456 (49.4%)
Severity of the majority of TEAEs (all dose cohorts): mild to moderate; also recorded: mild or moderate
Suicidal ideation or suicidal behavior compared to baseline (C-SSRS) (any study period or dose cohort): no signal for increased suicidal ideation or suicidal behavior
Tolerability (first course of Compound (1) 30 mg): generally well-tolerated
Most common AEs that led to dose reduction (in vivo): Somnolence, Dizziness, Sedation and Headache
TEAE diarrhea [9]: 6.3%
TEAE dizziness [9]: 9.1%
TEAE dry mouth [9]: 5.5%
TEAE headache [9]: 13.9%
TEAE insomnia [9]: 5.4%
TEAE sedation [9]: 8.7%
TEAE somnolence [9]: 12.8%
TEAE upper respiratory infection [9]: 6.3%
Overall safety observations with 50 mg versus safety findings with 30 mg (subjects receiving Compound (1) 50 mg): comparable
Subjects reporting SAEs (treatment cycle 1, 50 mg cohort (5/199)): 2.5%
Subjects reporting SAEs (treatment cycle 1, Low Dose cohort (6/645)): 0.9%
